Test results: PubChem BioAssay AID1259407 (Chemical Carcinogenesis Research Information System (CCRIS), 2018)
The source made the active and inactive calls. How the calls were made is not given here.

Tested on: CCRIS mutagenicity, Ames/micronucleus/aberration tests
Test: CCRIS mutagenicity studies
[1] = Test System: AMES SALMONELLA TYPHIMURIUM, Strain/Indicator: TA97, Metabolic Activation: NONE, Method: STANDARD PLATE
[2] = Test System: AMES SALMONELLA TYPHIMURIUM, Strain/Indicator: TA98, Metabolic Activation: NONE, Method: STANDARD PLATE
[3] = Test System: AMES SALMONELLA TYPHIMURIUM, Strain/Indicator: TA100, Metabolic Activation: NONE, Method: STANDARD PLATE
[4] = Test System: AMES SALMONELLA TYPHIMURIUM, Strain/Indicator: TA102, Metabolic Activation: NONE, Method: STANDARD PLATE

SMILES: Oc1ccc(O)cc1
- mutagenic call (End Point: IN VITRO CHROMOSOMAL ABERRATIONS, Test System: CHINESE HAMSTER OVARY CELLS, Metabolic Activation: NONE): inactive; negative
- mutagenic call (End Point: IN VITRO CHROMOSOMAL ABERRATIONS, Test System: CHINESE HAMSTER OVARY CELLS, Metabolic Activation: RAT, LIVER, S-9, AROCLOR 1254): active; positive
- mutagenic call (End Point: IN VITRO CHROMOSOMAL ABERRATIONS, Test System: CHINESE HAMSTER V79 CELLS, Metabolic Activation: NONE): active; positive; effective at higher doses at ph 7.4
- mutagenic call (End Point: IN VITRO CHROMOSOMAL ABERRATIONS, Test System: CHL/IU CELLS, Metabolic Activation: NONE): active; positive (structural changes)
- mutagenic call (End Point: IN VITRO CHROMOSOMAL ABERRATIONS, Test System: HUMAN (MALE) PERIPHERAL BLOOD LYMPHOCYTES, Metabolic Activation: NONE): inactive; negative
- mutagenic call (End Point: IN VITRO CHROMOSOMAL ABERRATIONS, Test System: HUMAN (MALE) PERIPHERAL BLOOD LYMPHOCYTES, Metabolic Activation: RAT, LIVER, S-9, AROCLOR 1254): inactive; negative
- mutagenic call (End Point: IN VITRO CHROMOSOMAL ABERRATIONS, Test System: HUMAN PERIPHERAL LYMPHOCYTES, Metabolic Activation: NONE): active; positive (ploidy)
- mutagenic call (End Point: IN VITRO CHROMOSOMAL ABERRATIONS, Test System: HUMAN PERIPHERAL LYMPHOCYTES, Metabolic Activation: NONE, Method: FISH): active; positive (ploidy); greater effects on certain chromosomes
- mutagenic call (End Point: IN VITRO CHROMOSOMAL ABERRATIONS, Test System: HUMAN PERIPHERAL LYMPHOCYTES, Metabolic Activation: NONE, Method: FISH - DUAL COLOR PROBES): active; positive (structural and ploidy changes)
- mutagenic call (End Point: IN VITRO CHROMOSOMAL ABERRATIONS, Test System: HUMAN PERIPHERAL LYMPHOCYTES, Metabolic Activation: NONE, Method: FISH - SINGLE COLOR): active; positive (ploidy)
- mutagenic call (End Point: IN VITRO CHROMOSOMAL ABERRATIONS, Test System: HUMAN PERIPHERAL LYMPHOCYTES, Metabolic Activation: NONE, Method: FISH- DUAL COLOR PROBES): inactive; negative for translocations
- mutagenic call (End Point: IN VITRO CHROMOSOMAL ABERRATIONS, Test System: V79, Metabolic Activation: RAT, LIVER, S-9, AROCLOR 1254): active; positive; effective at higher doses at ph 7.4
- mutagenic call (End Point: IN VITRO MICRONUCLEUS, Test System: CHL/IU CELLS, Metabolic Activation: NONE): active; positive
- mutagenic call (End Point: IN VITRO MICRONUCLEUS, Test System: HAMSTER V79 CELLS, Metabolic Activation: NONE): active; positive
- mutagenic call (End Point: IN VITRO MICRONUCLEUS, Test System: HUMAN LYMPHOCYTES, Metabolic Activation: NONE): active; positive; individuals with gstm1 null genotype more affected than those with gst
- mutagenic call (End Point: In vitro chromosomal aberrations, Test System: Chinese hamster lung (CHL/IU) cells, Metabolic Activation: Rat, Liver, S9, Phenobarbital and 5,6-benzoflavone): active; positive (structural changes and ploidy). toxic at 0.12 mg/ml.
- mutagenic call [1]: inactive; negative
- mutagenic call (Test System: AMES SALMONELLA TYPHIMURIUM, Strain/Indicator: TA97, Metabolic Activation: RAT, LIVER, S-9, PCB, Method: STANDARD PLATE): inactive; negative
- mutagenic call (Test System: AMES SALMONELLA TYPHIMURIUM, Strain/Indicator: TA97, Metabolic Activation: RAT, LIVER, S-9, PHENOBARBITAL, Method: PREINCUBATION): active; positive
- mutagenic call (Test System: AMES SALMONELLA TYPHIMURIUM, Strain/Indicator: TA98, Metabolic Activation: NONE, Method: PREINCUBATION): active; positive
- mutagenic call [2]: inactive; negative
- mutagenic call (Test System: AMES SALMONELLA TYPHIMURIUM, Strain/Indicator: TA98, Metabolic Activation: RAT, LIVER, S-9, PCB, Method: STANDARD PLATE): inactive; negative
- mutagenic call (Test System: AMES SALMONELLA TYPHIMURIUM, Strain/Indicator: TA98, Metabolic Activation: RAT, LIVER, S-9, PHENOBARBITAL, Method: PREINCUBATION): active; positive
- mutagenic call (Test System: AMES SALMONELLA TYPHIMURIUM, Strain/Indicator: TA100, Metabolic Activation: NONE, Method: PREINCUBATION): active; positive
- mutagenic call [3]: inactive; negative
- mutagenic call (Test System: AMES SALMONELLA TYPHIMURIUM, Strain/Indicator: TA100, Metabolic Activation: RAT, LIVER, S-9, PCB, Method: STANDARD PLATE): inactive; negative
- mutagenic call (Test System: AMES SALMONELLA TYPHIMURIUM, Strain/Indicator: TA100, Metabolic Activation: RAT, LIVER, S-9, PHENOBARBITAL, Method: PREINCUBATION): active; positive
- mutagenic call [4]: active; positive
- mutagenic call (Test System: AMES SALMONELLA TYPHIMURIUM, Strain/Indicator: TA104, Metabolic Activation: NONE, Method: PREINCUBATION): active; positive
- mutagenic call (Test System: UDS SHE CELLS, Strain/Indicator: THY INCORP, Metabolic Activation: NONE, Method: LIQUID SCINTILLATION COUNTING): active; positive

SMILES: CCC(CCC(C)=O)COC(=O)c1ccccc1C(=O)O (stereo not drawn)
- mutagenic call [1]: inactive; negative
- mutagenic call (Test System: AMES SALMONELLA TYPHIMURIUM, Strain/Indicator: TA97, Metabolic Activation: RAT, LIVER, S-9, AROCLOR 1254, Method: STANDARD PLATE): inactive; negative
- mutagenic call (Test System: AMES SALMONELLA TYPHIMURIUM, Strain/Indicator: TA97, Metabolic Activation: RAT, LIVER, S-9, DI(2-ETHYLHEXYL)PHTHALATE, Method: STANDARD PLATE): inactive; negative
- mutagenic call [2]: inactive; negative
- mutagenic call (Test System: AMES SALMONELLA TYPHIMURIUM, Strain/Indicator: TA98, Metabolic Activation: RAT, LIVER, S-9, AROCLOR 1254, Method: STANDARD PLATE): inactive; negative
- mutagenic call (Test System: AMES SALMONELLA TYPHIMURIUM, Strain/Indicator: TA98, Metabolic Activation: RAT, LIVER, S-9, DI(2-ETHYLHEXYL)PHTHALATE, Method: STANDARD PLATE): inactive; negative
- mutagenic call [3]: inactive; negative
- mutagenic call (Test System: AMES SALMONELLA TYPHIMURIUM, Strain/Indicator: TA100, Metabolic Activation: RAT, LIVER, S-9, AROCLOR 1254, Method: STANDARD PLATE): inactive; negative
- mutagenic call (Test System: AMES SALMONELLA TYPHIMURIUM, Strain/Indicator: TA100, Metabolic Activation: RAT, LIVER, S-9, DI(2-ETHYLHEXYL)PHTHALATE, Method: STANDARD PLATE): inactive; negative
- mutagenic call [4]: inactive; negative
- mutagenic call (Test System: AMES SALMONELLA TYPHIMURIUM, Strain/Indicator: TA102, Metabolic Activation: RAT, LIVER, S-9, AROCLOR 1254, Method: STANDARD PLATE): inactive; negative
- mutagenic call (Test System: AMES SALMONELLA TYPHIMURIUM, Strain/Indicator: TA102, Metabolic Activation: RAT, LIVER, S-9, DI(2-ETHYLHEXYL)PHTHALATE, Method: STANDARD PLATE): inactive; negative

SMILES: O=c1c(O)c2c(c3c1ccc1[nH]cccc13)O2
- mutagenic call [3]: inactive; negative
